{"source": "paper PMC10244465", "about": "“Native American ataxia medicines rescue ataxia-linked mutant potassium channel activity via binding to the voltage sensing domain” (Nature Communications, 2023)", "assay_type_in_all_cases": "cell-based", "key": {"[1]": {"target": "T1, Kv1.1/Kv1.1-G311D channels (Homo sapiens, UniProt Q09470, G311D)", "T1 construct": "expressed in transfected cells; host or cells: Xenopus laevis oocytes co-injected with 50/50 wild-type/mutant cRNA", "T1 sequence (Q09470 whole entry, stated change not applied)": "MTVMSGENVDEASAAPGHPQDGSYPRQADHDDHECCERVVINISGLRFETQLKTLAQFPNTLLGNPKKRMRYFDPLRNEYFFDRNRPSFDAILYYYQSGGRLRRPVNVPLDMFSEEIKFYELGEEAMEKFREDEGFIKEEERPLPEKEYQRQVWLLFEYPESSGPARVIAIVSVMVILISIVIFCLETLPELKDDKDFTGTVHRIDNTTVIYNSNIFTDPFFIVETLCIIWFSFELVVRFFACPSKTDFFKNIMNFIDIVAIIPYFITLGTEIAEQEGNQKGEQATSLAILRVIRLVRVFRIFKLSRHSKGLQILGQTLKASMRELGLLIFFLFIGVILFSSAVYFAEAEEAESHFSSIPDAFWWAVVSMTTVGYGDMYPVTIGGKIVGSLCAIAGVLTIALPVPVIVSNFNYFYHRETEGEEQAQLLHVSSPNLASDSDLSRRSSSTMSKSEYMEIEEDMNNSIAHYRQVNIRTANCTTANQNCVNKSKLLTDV", "T1 sequence (Q09470 whole entry G311D)": "as the sequence (Q09470 whole entry, stated change not applied) above, with G311D counted along it", "experiment": "TEVC of oocytes co-injected with 50/50 wild-type/G311D Kv1.1 cRNA", "details": "for effect on channel activity: compound 1 µM", "method": "(§1) We next tested effects on channels generated by co-injection of 50/50 wild-type/mutant Kv1.1 cRNA. Strikingly, gallic acid (1 µM) was able to hyperpolarize (by −15.5 ± 0.5 mV; n = 4; P < 0.0001) the V0.5 act of Kv1.1/Kv1.1-E283K channels, restoring voltage dependence typical of wild-type Kv1.1 (Fig. 7a–c), also inducing a −14 ± 0.7 mV hyperpolarization (n = 4; P = 0.0005) in EM of oocytes expressing Kv1.1/Kv1.1-E283K (Fig. 7d). […] Because of this hint at activity improvement in L155P channels we also applied higher concentrations (10 and 100 µM) of gallic acid, which produced a more robust (−12.5 ± 0.6 mV and −14.1 ± 0.6 mV, respectively) hyperpolarization of Kv1.1/Kv1.1-L155P V0.5 act (Fig. 8b, c) and hyperpolarized EM by −14.0 ± 0.6 mV and −15.2 ± 0.7 mV, respectively (Fig. 8d).\n(§2) Wild-type and mutant Kv1 cDNAs were generated (Genscript, Piscataway, NJ) in the pTLNx expression vector. As previously described, we generated cRNA transcripts encoding human Kv1.1 (wild-type and mutant) and Kv1.2, by in vitro transcription using the mMessage mMachine kit (Thermo Fisher Scientific), after vector linearization, from cDNA sub-cloned into plasmids (pTLNx) incorporating Xenopus laevis β-globin 5’ and 3’ UTRs flanking the coding region to enhance translation and cRNA stability. […]\n(§3) We performed TEVC at room temperature using an OC-725C amplifier (Warner Instruments, Hamden, CT) and pClamp10 software (Molecular Devices, Sunnyvale, CA) 2 days after cRNA injection as described in the section above. […] We recorded currents in response to voltage pulses between −80 mV and +40 mV at 10 or 20 mV intervals from a holding potential of −80 mV, to yield current-voltage relationships and examine activation kinetics. To calculate the voltage dependence of activation (V0.5), tail currents were recorded at a voltage pulse of −50 mV immediately following prepulse voltages between −80 mV and +40 mV. We analyzed data using Clampfit (Molecular Devices) and Graphpad Prism software (GraphPad, San Diego, CA, USA), stating values as mean ± SEM. […]"}, "[2]": {"target": "T2, Kv1.1/Kv1.1-L155P channels (Homo sapiens, UniProt Q09470, L155P)", "T2 construct": "expressed in transfected cells; host or cells: Xenopus laevis oocytes co-injected with 50/50 wild-type/L155P cRNA", "T2 sequence (Q09470 whole entry, stated change not applied)": "as the sequence (Q09470 whole entry, stated change not applied) above", "T2 sequence (Q09470 whole entry L155P)": "as the sequence (Q09470 whole entry, stated change not applied) above, with L155P counted along it", "experiment": "TEVC of oocytes co-injected with 50/50 wild-type/L155P Kv1.1 cRNA", "quoted_text": "As previously described[24], we generated cRNA transcripts encoding human Kv1.1 (wild-type and mutant) and Kv1.2, by in vitro transcription using the mMessage mMachine kit (Thermo Fisher Scientific), after vector linearization, from cDNA sub-cloned into plasmids (pTLNx) incorporating Xenopus laevis β-globin 5’ and 3’ UTRs flanking the coding region to enhance translation and cRNA stability. We injected defolliculated stage V and VI Xenopus laevis oocytes (Xenoocyte, Dexter, MI, US) with Kv1 cRNAs (1–5 ng). We incubated the oocytes at 16 °C in ND96 oocyte storage solution containing penicillin and streptomycin, with daily washing, for 2 days prior to two-electrode voltage-clamp (TEVC) recording."}, "Kv1.1-G311D channels": {"target": "T3, Kv1.1-G311D channels (Homo sapiens, UniProt Q09470, G311D)", "T3 construct": "expressed in transfected cells; host or cells: Xenopus laevis oocytes", "T3 sequence (Q09470 whole entry G311D)": "as the sequence (Q09470 whole entry, stated change not applied) above, with G311D counted along it", "experiment": "TEVC of oocytes expressing 100% Kv1.1-G311D", "details": "compound 1 µM", "excerpt": "(§4) EA1 mutant G311D is in the S4-5 linker of Kv1.1 (Fig. 5a) and produces a 65% prepulse current reduction both in Kv1.1-G311D and in Kv1.1/Kv1.1-G311D channels[43],[44]; either channel type was minimally responsive to the plant extracts tested (Supplementary Figs. 3 and 4). EA1 mutant L328V (which is associated with tetany and hypomagnesemia) is located in the intracellular end of Kv1.1 S5 (Fig. 5a) and results in complete current loss in a dominant negative manner, i.e., Kv1.1-L328V and Kv1.1/Kv1.1-L328V channels are each nonfunctional. The traditional ataxia remedy plant extracts were unable to rescue Kv1.1-L328V or Kv1.1/Kv1.1-L328V function (Supplementary Figs. 5 and 6). EA1 mutant V408A is in the intracellular-proximal end of Kv1.1 S6 (Fig. 5a) and reduces current, speeds deactivation, and increases C-type inactivation of Kv1.1[46]. Here, Native American ataxia remedy extracts had relatively minor effects on Kv1.1-V408A activity, with nettle and Pacific ninebark (roots or leaves) inducing hyperpolarizing shifts in EM, and Pacific ninebark leaves inducing a negative shift in the voltage dependence of activation, although this was not quantifiable due to the very small tail currents (Supplementary Fig. 7). Effects of the extracts on Kv1.1/Kv1.1-V408A activity were also relatively minor (Supplementary Fig. 8). […]"}, "Kv1.1-L328V channels": {"target": "T4, Kv1.1-L328V channels (Homo sapiens, UniProt Q09470, L328V)", "T4 construct": "expressed in transfected cells; host or cells: Xenopus laevis oocytes", "T4 sequence (Q09470 whole entry L328V)": "as the sequence (Q09470 whole entry, stated change not applied) above, with L328V counted along it", "experiment": "TEVC of oocytes expressing 100% Kv1.1-L328V", "details": "compound 1 µM", "excerpt": "as §4, §3"}, "wild-type human Kv1.1": {"target": "T5, wild-type human Kv1.1 (Homo sapiens, UniProt Q09470)", "T5 construct": "expressed in transfected cells; host or cells: Xenopus laevis oocytes injected with cRNA (pTLNx vector)", "experiment": "Two-electrode voltage clamp of oocytes expressing wild-type Kv1.1", "details": "for shift of midpoint voltage-dependence of activation (V0.5 act): 100 µM; for effect on Kv1.1 activity: compound 100 µM; for EM (unclamped oocyte membrane potential) / Slope / V0.5 Normalized tail current: in presence of 100 µM compound", "excerpt": "Wild-type and mutant Kv1 cDNAs were generated (Genscript, Piscataway, NJ) in the pTLNx expression vector. As previously described, we generated cRNA transcripts encoding human Kv1.1 (wild-type and mutant) and Kv1.2, by in vitro transcription using the mMessage mMachine kit (Thermo Fisher Scientific), after vector linearization, from cDNA sub-cloned into plasmids (pTLNx) incorporating Xenopus laevis β-globin 5’ and 3’ UTRs flanking the coding region to enhance translation and cRNA stability. We injected defolliculated stage V and VI Xenopus laevis oocytes (Xenoocyte, Dexter, MI, US) with Kv1 cRNAs (1–5 ng). We incubated the oocytes at 16 °C in ND96 oocyte storage solution containing penicillin and streptomycin, with daily washing, for 2 days prior to two-electrode voltage-clamp (TEVC) recording.\nWe performed TEVC at room temperature using an OC-725C amplifier (Warner Instruments, Hamden, CT) and pClamp10 software (Molecular Devices, Sunnyvale, CA) 2 days after cRNA injection as described in the section above. For recording, oocytes we placed in a small-volume oocyte bath (Warner) and viewed with a dissection microscope. We sourced chemicals from Sigma. We studied effects of plant extracts and of compounds, solubilized directly in bath solution (in mM): 96 NaCl, 4 KCl, 1 MgCl2, 1 CaCl2, 10 HEPES (pH 7.6). We introduced extracts or compounds into the oocyte recording bath by gravity perfusion at a constant flow of 1 ml per minute for 3 min prior to recording. Pipettes were of 1–2 MΩ resistance when filled with 3 M KCl. We recorded currents in response to voltage pulses between −80 mV and +40 mV at 10 or 20 mV intervals from a holding potential of −80 mV, to yield current-voltage relationships and examine activation kinetics. To calculate the voltage dependence of activation (V0.5), tail currents were recorded at a voltage pulse of −50 mV immediately following prepulse voltages between −80 mV and +40 mV. We analyzed data using Clampfit (Molecular Devices) and Graphpad Prism software (GraphPad, San Diego, CA, USA), stating values as mean ± SEM. We plotted raw or normalized tail currents vs. prepulse voltage and fitted with a single Boltzmann function:1 g=(A1−A2)/1+exp[V1/2−V/Vs]y+A2 where g is the normalized tail conductance, A1 is the initial value at -∞, A2 is the final value at +∞, V1/2 is the half-maximal voltage of activation and Vs the slope factor."}, "[3]": {"target": "T6, Kv1.1/Kv1.1-L328V channels (Homo sapiens, UniProt Q09470, L328V)", "T6 construct": "expressed in transfected cells; host or cells: Xenopus laevis oocytes co-injected with 50/50 wild-type/mutant cRNA", "T6 sequence (Q09470 whole entry, stated change not applied)": "as the sequence (Q09470 whole entry, stated change not applied) above", "T6 sequence (Q09470 whole entry L328V)": "as the sequence (Q09470 whole entry, stated change not applied) above, with L328V counted along it", "experiment": "TEVC of oocytes co-injected with 50/50 wild-type/L328V Kv1.1 cRNA", "details": "for effect on channel activity: compound 1 µM", "method": "as §1, §2, §3"}}, "note": "Where two headings read alike, the source gives them in different places.", "data": [{"molecule": "tannic acid", "values": [{"measurement": "effect on channel activity", "setting": "[1]", "value": "minimal"}, {"measurement": "effect on channel activity", "setting": "[2]; compound 1 µM", "value": "minimal"}, {"measurement": "effect on channel activity", "setting": "Kv1.1-G311D channels", "value": "did not alter"}, {"measurement": "effect on channel activity", "setting": "Kv1.1-L328V channels", "value": "does not rescue"}, {"measurement": "shift of midpoint voltage-dependence of activation (V0.5 act)", "setting": "wild-type human Kv1.1", "value": "−25.6 ± 2.6", "unit": "mV"}, {"measurement": "effect on Kv1.1 activity", "setting": "wild-type human Kv1.1", "value": "highly efficacious Kv1.1 channel openers"}, {"measurement": "EC50", "setting": "wild-type human Kv1.1; dose response, Fig. 4, read-out: EC50 for ΔV0.5activation", "value": "19 ± 1.5", "unit": "nM"}, {"measurement": "EM (unclamped oocyte membrane potential)", "setting": "wild-type human Kv1.1", "value": "-54.40 ± 1.23", "unit": "mV"}, {"measurement": "Slope", "setting": "wild-type human Kv1.1", "value": "13.67 ± 2.01", "unit": "mV"}, {"measurement": "V0.5 Normalized tail current", "setting": "wild-type human Kv1.1", "value": "-44.95 ± 2.49", "unit": "mV"}, {"measurement": "effect on channel activity", "setting": "[3]", "value": "minimal"}]}, {"molecule": "O=C(O)c1cc(O)c(O)c(O)c1", "note": "[gallic acid]", "values": [{"measurement": "effect on channel activity", "setting": "[1]", "value": "negligible"}, {"measurement": "EM", "setting": "[1]; in presence of 1 µM compound", "value": "-47.00 ± 2.56", "unit": "mV"}, {"measurement": "hyperpolarization of EM", "setting": "[2]; 1 µM", "value": "–9.1 ± 0.8 mV"}, {"measurement": "shift in the voltage dependence of activation (V0.5 act)", "setting": "[2]; 1 µM", "value": "−6.8 ± 0.6", "unit": "mV"}, {"measurement": "hyperpolarization of EM", "setting": "[2]; 10 µM", "value": "−14.0 ± 0.6", "unit": "mV"}, {"measurement": "shift in the voltage dependence of activation (V0.5 act)", "setting": "[2]; 10 µM", "value": "−12.5 ± 0.6", "unit": "mV"}, {"measurement": "hyperpolarization of EM", "setting": "[2]; 100 µM", "value": "−15.2 ± 0.7", "unit": "mV"}, {"measurement": "shift in the voltage dependence of activation (V0.5 act)", "setting": "[2]; 100 µM", "value": "−14.1 ± 0.6", "unit": "mV"}, {"measurement": "EM", "setting": "[2]; in presence of 1 µM compound", "value": "-45.00 ± 0.78", "unit": "mV"}, {"measurement": "Slope", "setting": "[2]; in presence of 1 µM compound", "value": "4.84 ± 0.56", "unit": "mV"}, {"measurement": "V0.5 Normalized tail current", "setting": "[2]; in presence of 1 µM compound", "value": "-30.59 ± 0.60", "unit": "mV"}, {"measurement": "EM", "setting": "[2]; in presence of 10 µM compound", "value": "-48.89 ± 0.66", "unit": "mV"}, {"measurement": "Slope", "setting": "[2]; in presence of 10 µM compound", "value": "4.76 ± 0.51", "unit": "mV"}, {"measurement": "V0.5 Normalized tail current", "setting": "[2]; in presence of 10 µM compound", "value": "-36.38 ± 0.62", "unit": "mV"}, {"measurement": "EM", "setting": "[2]; in presence of 100 µM compound", "value": "-50.11 ± 0.69", "unit": "mV"}, {"measurement": "Slope", "setting": "[2]; in presence of 100 µM compound", "value": "4.68 ± 0.55", "unit": "mV"}, {"measurement": "V0.5 Normalized tail current", "setting": "[2]; in presence of 100 µM compound", "value": "-37.93 ± 0.62", "unit": "mV"}, {"measurement": "effect on channel activity", "setting": "Kv1.1-G311D channels", "value": "ineffective at rescuing activity"}, {"measurement": "effect on channel activity", "setting": "Kv1.1-L328V channels", "value": "ineffective at rescuing activity"}, {"measurement": "shift of midpoint voltage-dependence of activation (V0.5 act)", "setting": "wild-type human Kv1.1", "value": "−21.0 ± 2.5", "unit": "mV"}, {"measurement": "EC50", "setting": "wild-type human Kv1.1; EC50 for hyperpolarization of EM, oocytes expressing wild-type Kv1.1", "value": "18 ± 6", "unit": "nM"}, {"measurement": "EC50", "setting": "wild-type human Kv1.1; EC50 for peak current augmentation, at −40 mV, Fig. 10", "value": "379 ± 28", "unit": "nM"}, {"measurement": "EC50", "setting": "wild-type human Kv1.1; EC50 for ΔV0.5activation, dose response, Fig. 4", "value": "54 ± 10", "unit": "nM"}, {"measurement": "lowest concentration that begins to hyperpolarize the resting membrane potential", "setting": "wild-type human Kv1.1; Kv1.1-expressing oocytes", "value": 100, "unit": "nM"}, {"measurement": "effect on Kv1.1 activity", "setting": "wild-type human Kv1.1", "value": "highly efficacious Kv1.1 channel openers"}, {"measurement": "maximal shift in V0.5activation", "setting": "wild-type human Kv1.1; dose response, Fig. 4a", "value": "−20", "unit": "mV"}, {"measurement": "EM (unclamped oocyte membrane potential)", "setting": "wild-type human Kv1.1", "value": "-49.60 ± 0.91", "unit": "mV"}, {"measurement": "Slope", "setting": "wild-type human Kv1.1", "value": "12.10 ± 2.32", "unit": "mV"}, {"measurement": "V0.5 Normalized tail current", "setting": "wild-type human Kv1.1", "value": "-37.17 ± 2.59", "unit": "mV"}, {"measurement": "effect on channel activity", "setting": "[3]", "value": "negligible"}, {"measurement": "EM", "setting": "[3]; in presence of 1 µM compound", "value": "-33.00 ± 1.09", "unit": "mV"}]}]}
